According to US4711898A, “4-quinolone derivatives having anti-inflammatory, anti-allergic, antitussive, expectorant and antithrombotic activity” (Nippon Shinyaku Co., Ltd., priority 1982, dated 1987):

Tests used:
[1] = system: SRS-A (slow reacting substance of anaphylaxis) contraction of ileum; assay: Anti-SRS-A action using ileus of guinea pigs; assay type: cell-based, Hartley strain male guinea pigs; conditions: 5 min, guinea pig ileum, SRS-A 20 units, compound five minutes before; for inhibition at 1 µM: Cavia porcellus, 1/1000 mM, read-out: 1/1000 mM SRS-A Inhibition Ratio %
Procedure: (§1) The compounds of the present invention have been evaluated for their anti-allergenic action by passive cutaneous anaphylatic assay (PCA) in rats and by measuring the anti-SRS-A action using ileus of guinea pigs.
Anti-SRS-A action (An anti-acton against slow reacting substance of anaphylaxis).
Hartley strain male guinea pigs (300 to 350 grams body weight) are killed and 1.0 to 1.5 cm of ileum is immeidiately excised from ileocecal parts and is suspended in 10 ml of Tyrode solution (95% 02 -5% CO2 saturation) containing 10^-7 g/ml of atropine and 10^-6 g/ml of pyrilamine. SRS-A (20 units) (the amount of SRS-A showing the same contradiction as 5 ng of histamine is defined as 1 unit) prepared by using sensitized guinea pig lung is given to cause contraction there. Then antagonistic action of test compounds treated five minutes ago against the contraction is measured and recorded via isotonic transducer. [formula] in which A' is a height of contraction of SRS-A+test compound and A is that of SRS-A.

[2] = system: passive cutaneous anaphylaxis (DNP-As homocytotropic antiserum); assay: passive cutaneous anaphylatic assay (PCA) in rats; assay type: in vivo, Wistar strain rats; conditions: 10 mg/kg orally, one hour before antigen; for inhibition in vivo at 10 mg/kg: Rattus norvegicus, po, 1 h, read-out: PCA Inhibition Ratio %; for PCA Inhibition Ratio %: listed as H
Procedure: as §1
(i) Antiserum abundant in homocytotropic antibody is prepared by the same method as Tada and Okumura did (cf. Journal of Immunology, vol. 106, page 1002, 1971). Thus, 1 mg (calculated as an amount of protein) of DNP-As (2,4-dinitrophenylcoupled ascaris extract) prepared by methods of Strejan and Campbell (Journal of Immunology, vol. 98, p. 893, 1967) and of Eisen (Journal of Amer. Chem. Soc., vol. 75, p 4593, 1953) and 1×10^10pertussis vaccine are administered to each paw of Wistar strain rats (180 to 200 grams body weights) by dividing the dose by four. Five days later, 0.5 mg of DNP-As is administered into muscle of back. Eight days later from the initial immunization, blood is taken from discending aorta under anesthetizing with ether, the resulting serum is stored at -80° and is melted before use.
(ii) Effect of tested compounds is investigated as follows:
Anti-serum obtained by th method (i) is diluted with physiological saline solution double by double successively and 0.05 ml of each diluted solution is administered into the back of Wistar strain rats (140 to 160 grams body weight) intradermally. After 72 hours, a solution of 2 mg (calculated as protein) of DNP-As and 2.5 mg of Evans Blue dissolved in 1 ml of physiological saline solution is administered intraveously at a dose of 5 ml/kg. After 30 minutes from the antigen solution administration, the animals are killed and the diameters of blue spots which appeared at the place where antiserum was administered were measured. The PCA test is conducted by the same method as already described using a diluted solutions of antiserum which always show 10 mm or more of spot diameters and the effect of the test compounds is judged. Thus antiserum diluted solutions are administered into two places in the back. Test compounds are administered orally at the dose of 10 mg/kg one hour before administration of the antigen solution. From the skin of reacted parts of killed animals, leaked or emitted dyestuff is extracted and the amount of the dyestuff is measured. The inhibition ratio is calculated by the following expression: [formula] in which A' is an amount of dyestuff in the group treated with the test compounds and A is that in the control group.

| SMILES | inhibition at 1 µM [1] | inhibition in vivo at 10 mg/kg [2] | PCA Inhibition Ratio % ([2]; H) | 1/1000 mM SRS-A Inhibition Ratio % ([1]; listed as H, Na salt, 1 µM) | PCA Inhibition Ratio % ([2]; Na salt) |
| --- | --- | --- | --- | --- | --- |
| COc1ccccc1C1=Nc2ccc(C(=O)O)cc2C(=O)C1 [Example 57, 2-(2-methoxyphenyl)-4-quinolone-6-carboxylic acid] | 27.7% | 20.4% |  |  |  |
| CCOc1ccccc1-c1cc(=O)c2cc(C(=O)OC)ccc2[nH]1 [Example 58] | 63% | 23.1% |  |  |  |
| CCOc1ccccc1-c1cc(=O)c2cc(C(=O)O)ccc2[nH]1 [Example 59] | 24.6% | 15.8% |  |  |  |
| COC(=O)c1ccc2[nH]c(-c3ccccc3OC(C)C)cc(=O)c2c1 [Example 60] | 58.8% | 21.2% |  |  |  |
| CC(C)Oc1ccccc1-c1cc(=O)c2cc(C(=O)O)ccc2[nH]1 [Example 61] | 31.8% | 20.1% |  |  |  |
| COC(=O)c1ccc2[nH]c(-c3ccc(OC)cc3)cc(=O)c2c1 [Example 62] | 27.4% | 19% |  |  |  |
| COc1ccc(-c2cc(=O)c3cc(C(=O)O)ccc3[nH]2)cc1 [Example 63] | 23% | 18.4% |  |  |  |
| COc1ccc(-c2cc(=O)c3cc(C(=O)O)ccc3[nH]2)c(OC)c1 [Example 65] | 27.3% | 26.9% |  |  |  |
| COC(=O)c1ccc2[nH]c(-c3ccc(OC)c(OC)c3)cc(=O)c2c1 [Example 66] | 25.7% | 25.4% |  |  |  |
| COc1ccc(-c2cc(=O)c3cc(C(=O)O)ccc3[nH]2)cc1OC [Example 67] | 25% | 17.4% |  |  |  |
| COC(=O)c1ccc(-c2cc(=O)c3cc(C(=O)OC)ccc3[nH]2)cc1 [Example 68] | 36.8% | 19.8% |  |  |  |
| O=C(O)c1ccc(-c2cc(=O)c3cc(C(=O)O)ccc3[nH]2)cc1 [Example 69] | 27.9% | 25.8% |  |  |  |
| O=C(O)c1ccc2[nH]c(-c3ccncc3)cc(=O)c2c1 [Example 71] | 25% | 25.6% |  |  |  |
| COC(=O)c1ccc2[nH]c(-c3cccnc3)cc(=O)c2c1 [Example 72] | 22% | 17.8% |  |  |  |
| O=C(O)c1ccc2[nH]c(-c3cccnc3)cc(=O)c2c1 [Example 73] | 23.8% | 20.4% |  |  |  |
| COC(=O)c1ccc2[nH]c(-c3ccccn3)cc(=O)c2c1 [Example 74] | 25% | 23.1% |  |  |  |
| O=C(O)c1ccc2[nH]c(-c3ccccn3)cc(=O)c2c1 [Example 75] | 28.9% | 20.4% |  |  |  |
| O=C(O)c1ccc2[nH]c(-c3ccco3)cc(=O)c2c1 [Example 77] | 21% | 17.4% |  |  |  |
| COC(=O)c1ccc2[nH]c(-c3cccs3)cc(=O)c2c1 [Example 78] | 23.3% | 26.7% |  |  |  |
| O=C(O)c1ccc2[nH]c(-c3cccs3)cc(=O)c2c1 [Example 79] | 19.5% | 19.8% |  |  |  |
| O=C(O)c1cccc2c(=O)cc(-c3ccccc3)[nH]c12 [Example 81] | 26.4% |  | 35.3% |  |  |
| O=C(O)c1cccc2c(=O)cc(-c3ccccc3)[nH]c12 [Example 82] |  |  |  | 27.3% | 10.0% |
| O=C(O)c1cccc2c(=O)cc(-c3cccc(Cl)c3)[nH]c12 [Example 87] | 20.7% | 19.3% |  |  |  |
| COC(=O)c1cccc2c(=O)cc(-c3ccc(Cl)cc3Cl)[nH]c12 [Example 88] | 45.5% | 17.5% |  |  |  |
| O=C(O)c1cccc2c(=O)cc(-c3ccc(Cl)cc3Cl)[nH]c12 [Example 90] | 53.6% | 23.4% |  |  |  |
| O=C(O)c1cccc2c(=O)cc(-c3ccc(Cl)c(Cl)c3)[nH]c12 [Example 91] | 24.2% | 22.7% |  |  |  |
| Cc1ccc(-c2cc(=O)c3cccc(C(=O)O)c3[nH]2)cc1 [Example 93] | 26.7% | 23.5% |  |  |  |
